System: Factor Xa
Assay: Factor Xa assay (HEPRN) of heparin biological activity
Type: biochemical
Procedure: The silica sol loaded with heparin was prepared by a two step sol-gel process using acid as a catalyst (Ellerby et al. 1992). The following reagents were used, tetraethoxysilane (TEOS) (Aldrich), deionized water, nitric acid (HNO3) (Merck), acetic acid (CH3COOH) (Merck), ammonium hydroxide (NH4OH) (Merck)) and heparin sodium salt (Orion Corporation, Finland). The biological activity of the used heparin was 84 IU/mg measured by Factor Xa assay (HEPRN). The first step of the reaction series was a hydrolysis reaction between water and alkoxide. The mol ratio of the silica sol was TEOS:H2O:HNO3=1:15:0.0015 and TEOS:H2O:CH3COOH=1:15:0.026, respectively. Modification of the nitric acid catalyzed sol was carried out by co-hydrolysis of TEOS with the following organomodified (i.e. alkylsubstituted) alkoxysilanes: dimethyldiethoxysilane Me2Si(OEt)2 (DMDES) (Lancaster), methyltriethoxysilane MeSi(OEt)3(METES) (Aldrich) or ethyltriethoxysilane EtSi(OEt)3 (ETES) (Lancaster). For the partial substitution of TEOS, 10 or 25 mol-% organomodified alkoxysilane was used. After the first step, i.e. hydrolysis reaction, pH was raised to 4.54.8 with base (0.1 or 1 M NH4OH) before heparin addition. […] The concentration of heparin in silica sol ranged from 1 wt % to 4 wt % calculated on the sol, corresponding to 6.8–29.2 wt % in the air dried silica xerogel. […]

In the case of heparin, the “biological activity of the used heparin” value is reported as 84 IU/mg.
